In ChEMBL document CHEMBL3991601, “The target landscape of clinical kinase drugs” (Science, 2017) one finds Kd data, which are given here for eight compounds.

Assay [1] deals with Mitogen-activated protein kinase kinase kinase kinase 5 (Homo sapiens, UniProt Q9Y4K4).
Assay [2] deals with Dual specificity tyrosine-phosphorylation-regulated kinase 1A (Homo sapiens, UniProt Q13627).
The target in assay [3] is Bone morphogenetic protein receptor type-1B (Homo sapiens, UniProt O00238).
Assay [4] concerns the target T1, Serine/threonine-protein kinase Nek1 (Homo sapiens, UniProt Q96PY6).
T1 sequence (Q96PY6 whole entry): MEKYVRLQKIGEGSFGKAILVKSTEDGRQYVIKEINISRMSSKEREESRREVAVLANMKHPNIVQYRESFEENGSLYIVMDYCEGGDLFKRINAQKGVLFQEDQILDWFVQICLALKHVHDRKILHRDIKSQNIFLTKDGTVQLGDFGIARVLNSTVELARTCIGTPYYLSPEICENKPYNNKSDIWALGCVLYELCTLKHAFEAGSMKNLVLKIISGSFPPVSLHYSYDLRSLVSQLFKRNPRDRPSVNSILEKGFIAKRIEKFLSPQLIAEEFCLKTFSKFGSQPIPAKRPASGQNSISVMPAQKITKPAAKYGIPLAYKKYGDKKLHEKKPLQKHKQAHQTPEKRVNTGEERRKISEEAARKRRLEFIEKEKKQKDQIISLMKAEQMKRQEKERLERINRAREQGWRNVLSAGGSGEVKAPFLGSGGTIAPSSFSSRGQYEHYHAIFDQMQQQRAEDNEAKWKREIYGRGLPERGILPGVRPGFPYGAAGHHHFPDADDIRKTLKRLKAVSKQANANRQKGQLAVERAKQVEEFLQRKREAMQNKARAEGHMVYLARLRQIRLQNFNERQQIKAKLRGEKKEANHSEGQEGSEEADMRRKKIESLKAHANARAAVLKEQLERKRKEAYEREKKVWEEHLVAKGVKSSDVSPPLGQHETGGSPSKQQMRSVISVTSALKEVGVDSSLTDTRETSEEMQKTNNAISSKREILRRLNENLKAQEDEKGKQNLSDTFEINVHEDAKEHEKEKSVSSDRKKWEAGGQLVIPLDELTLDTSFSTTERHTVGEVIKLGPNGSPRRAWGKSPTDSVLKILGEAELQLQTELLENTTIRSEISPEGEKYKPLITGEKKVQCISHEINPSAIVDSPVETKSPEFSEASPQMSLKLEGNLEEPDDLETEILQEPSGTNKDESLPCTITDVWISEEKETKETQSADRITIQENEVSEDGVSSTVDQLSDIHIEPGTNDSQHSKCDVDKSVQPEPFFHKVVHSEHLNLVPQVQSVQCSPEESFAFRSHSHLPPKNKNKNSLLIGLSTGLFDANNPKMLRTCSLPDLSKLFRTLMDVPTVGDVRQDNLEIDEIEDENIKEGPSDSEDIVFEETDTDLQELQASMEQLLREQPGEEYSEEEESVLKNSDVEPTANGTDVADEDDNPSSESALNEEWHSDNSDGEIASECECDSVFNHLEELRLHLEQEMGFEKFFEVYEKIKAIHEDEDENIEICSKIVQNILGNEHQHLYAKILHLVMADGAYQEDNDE

Assay [5] concerns the target T2, Non-receptor tyrosine-protein kinase TNK1 (Homo sapiens, UniProt Q13470).
T2 sequence (Q13470 whole entry): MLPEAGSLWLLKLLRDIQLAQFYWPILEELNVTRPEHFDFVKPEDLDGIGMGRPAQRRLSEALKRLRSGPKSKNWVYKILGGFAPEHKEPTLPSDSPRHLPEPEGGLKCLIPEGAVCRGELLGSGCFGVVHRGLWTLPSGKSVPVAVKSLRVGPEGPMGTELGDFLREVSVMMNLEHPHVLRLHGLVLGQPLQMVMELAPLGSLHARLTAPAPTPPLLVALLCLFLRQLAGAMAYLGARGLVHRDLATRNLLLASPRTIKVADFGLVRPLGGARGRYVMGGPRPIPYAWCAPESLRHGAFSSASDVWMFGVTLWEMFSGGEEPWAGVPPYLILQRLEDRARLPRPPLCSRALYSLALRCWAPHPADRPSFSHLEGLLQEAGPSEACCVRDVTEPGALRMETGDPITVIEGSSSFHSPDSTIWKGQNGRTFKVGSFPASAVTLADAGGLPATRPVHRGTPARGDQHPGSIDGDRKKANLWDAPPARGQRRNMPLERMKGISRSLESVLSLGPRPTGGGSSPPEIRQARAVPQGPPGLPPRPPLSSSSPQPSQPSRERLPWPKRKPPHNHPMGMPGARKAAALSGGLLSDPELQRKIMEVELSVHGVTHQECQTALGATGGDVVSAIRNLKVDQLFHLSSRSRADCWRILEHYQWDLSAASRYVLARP

A further assay deals with T3, Ephrin type-B receptor 3 (Homo sapiens, UniProt P54753).
T3 sequence (P54753 whole entry): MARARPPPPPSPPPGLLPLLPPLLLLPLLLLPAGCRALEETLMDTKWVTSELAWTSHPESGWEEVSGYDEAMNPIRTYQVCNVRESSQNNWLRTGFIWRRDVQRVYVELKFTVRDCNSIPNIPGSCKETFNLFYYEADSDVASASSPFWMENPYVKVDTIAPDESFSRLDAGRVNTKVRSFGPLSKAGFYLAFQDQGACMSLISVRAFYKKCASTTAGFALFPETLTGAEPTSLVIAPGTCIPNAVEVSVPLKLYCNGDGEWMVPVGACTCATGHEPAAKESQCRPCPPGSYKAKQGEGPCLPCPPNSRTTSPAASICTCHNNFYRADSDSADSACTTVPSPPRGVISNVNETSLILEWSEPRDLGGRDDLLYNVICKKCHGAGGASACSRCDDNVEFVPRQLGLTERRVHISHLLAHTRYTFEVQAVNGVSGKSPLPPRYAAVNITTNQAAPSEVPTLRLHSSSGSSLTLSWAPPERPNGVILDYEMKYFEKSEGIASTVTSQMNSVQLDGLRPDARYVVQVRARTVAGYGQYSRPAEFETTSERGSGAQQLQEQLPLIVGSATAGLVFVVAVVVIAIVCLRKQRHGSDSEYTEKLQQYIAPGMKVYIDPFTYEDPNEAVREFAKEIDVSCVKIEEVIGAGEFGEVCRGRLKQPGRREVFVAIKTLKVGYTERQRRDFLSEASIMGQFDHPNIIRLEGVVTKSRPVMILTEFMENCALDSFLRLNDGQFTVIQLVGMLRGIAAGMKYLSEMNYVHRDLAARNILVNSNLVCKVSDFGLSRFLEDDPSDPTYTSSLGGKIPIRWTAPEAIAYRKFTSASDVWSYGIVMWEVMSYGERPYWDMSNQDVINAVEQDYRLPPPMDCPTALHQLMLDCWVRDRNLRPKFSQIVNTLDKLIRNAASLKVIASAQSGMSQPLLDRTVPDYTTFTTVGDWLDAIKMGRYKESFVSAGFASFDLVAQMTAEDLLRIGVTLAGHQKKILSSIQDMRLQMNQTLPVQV

Active and inactive are the calls of the source. For most assays here, no stated cut-off is given here; in the data, actives have a measured Kd and inactives only a lower limit.

Chain of Bone morphogenetic protein receptor type-1B (O00238 whole entry): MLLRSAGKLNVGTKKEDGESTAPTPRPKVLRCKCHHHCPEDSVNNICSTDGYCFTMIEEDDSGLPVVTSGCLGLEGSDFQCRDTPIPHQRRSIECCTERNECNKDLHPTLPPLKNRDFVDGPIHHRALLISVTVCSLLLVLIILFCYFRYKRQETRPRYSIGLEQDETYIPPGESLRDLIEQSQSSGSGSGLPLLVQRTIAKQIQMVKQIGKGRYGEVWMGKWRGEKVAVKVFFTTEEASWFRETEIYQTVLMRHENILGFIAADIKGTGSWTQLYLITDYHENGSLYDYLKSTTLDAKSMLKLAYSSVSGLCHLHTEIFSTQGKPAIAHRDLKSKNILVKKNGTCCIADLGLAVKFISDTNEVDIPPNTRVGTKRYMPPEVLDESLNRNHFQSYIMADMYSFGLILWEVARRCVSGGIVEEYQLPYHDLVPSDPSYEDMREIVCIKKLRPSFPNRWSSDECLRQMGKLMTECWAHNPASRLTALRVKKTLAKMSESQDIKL
Chain of Mitogen-activated protein kinase kinase kinase kinase 5 (Q9Y4K4 whole entry): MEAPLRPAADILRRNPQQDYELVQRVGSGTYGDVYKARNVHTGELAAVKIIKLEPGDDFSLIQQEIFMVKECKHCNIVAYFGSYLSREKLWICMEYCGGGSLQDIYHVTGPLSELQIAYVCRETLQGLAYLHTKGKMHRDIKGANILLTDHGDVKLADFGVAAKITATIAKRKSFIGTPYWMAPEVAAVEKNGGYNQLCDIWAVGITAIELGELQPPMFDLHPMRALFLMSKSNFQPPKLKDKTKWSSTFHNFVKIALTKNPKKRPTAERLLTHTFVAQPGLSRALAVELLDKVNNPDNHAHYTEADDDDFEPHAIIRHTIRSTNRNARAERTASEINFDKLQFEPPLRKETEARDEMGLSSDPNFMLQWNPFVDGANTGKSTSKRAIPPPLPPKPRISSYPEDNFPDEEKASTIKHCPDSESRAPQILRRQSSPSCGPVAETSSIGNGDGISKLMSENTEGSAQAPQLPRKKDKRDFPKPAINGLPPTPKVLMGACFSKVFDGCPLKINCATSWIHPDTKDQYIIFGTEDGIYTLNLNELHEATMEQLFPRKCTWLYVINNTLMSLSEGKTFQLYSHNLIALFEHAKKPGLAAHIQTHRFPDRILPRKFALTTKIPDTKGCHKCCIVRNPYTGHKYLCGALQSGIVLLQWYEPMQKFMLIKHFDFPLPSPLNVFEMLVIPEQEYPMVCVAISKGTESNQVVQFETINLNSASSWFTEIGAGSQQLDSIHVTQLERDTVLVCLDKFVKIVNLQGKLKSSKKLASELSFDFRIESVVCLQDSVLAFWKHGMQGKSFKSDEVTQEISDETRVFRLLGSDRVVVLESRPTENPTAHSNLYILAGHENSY

As for `COc1cc(F)c(F)c(Nc2ccc(I)cc2F)c1NS(=O)(=O)C1(C[C@H](O)CO)CC1` [REFAMETINIB], the Kd (in assay [1]; in assay [2]; in assay [3]; in assay [4]; in assay [5]; on Ephrin type-B receptor 3) was > 30 µM (inactive) each time.

With `Cc1ccc(C(=O)Nc2ccc(Oc3cc4cnn(C)c4cc3-c3cn[nH]c3)c(F)c2)c(=O)n1-c1ccc(F)cc1` [MERESTINIB], the Kd (in assay [1]; in assay [2]; in assay [3]; in assay [4]; in assay [5]; on Ephrin type-B receptor 3) was > 30 µM (inactive) throughout.

With `C=CC(=O)Nc1cccc(Nc2nc(Nc3ccc(N4CCN(C(C)=O)CC4)cc3OC)ncc2C(F)(F)F)c1` [ROCILETINIB], the Kd was > 30 µM (inactive) in assay [1]; > 30 µM (inactive) in assay [2]; > 30 µM (inactive) in assay [3]; > 30 µM (inactive) in assay [4]; 0.289 µM (active) in assay [5]; > 30 µM (inactive) on Ephrin type-B receptor 3.

On to `C=CC(=O)Nc1cc(Nc2nccc(-c3cn(C)c4ccccc34)n2)c(OC)cc1N(C)CCN(C)C` [OSIMERTINIB], for which the Kd (in assay [1]; in assay [2]; in assay [3]; in assay [4]; in assay [5]; at Ephrin type-B receptor 3) was > 30 µM (inactive) each time.

As for `COc1cc(Nc2ncc(F)c(Nc3ccc4c(n3)N(COP(=O)(O)O)C(=O)C(C)(C)O4)n2)cc(OC)c1OC` [FOSTAMATINIB], the Kd was > 30 µM (inactive) in assay [1]; > 30 µM (inactive) in assay [2]; > 30 µM (inactive) in assay [3]; > 30 µM (inactive) in assay [4]; 0.16 µM (active) in assay [5]; > 30 µM (inactive) on Ephrin type-B receptor 3.

In the case of `O=S(=O)(c1cccc2c(O)nccc12)N1CCCNCC1` [HYDROXYFASUDIL], the Kd (in assay [1]; in assay [2]; in assay [3]; in assay [4]; in assay [5]; on Ephrin type-B receptor 3) was > 30 µM (inactive) each time.

For `Cc1c(NC(=O)OC[C@@H]2COCCN2)cn2ncnc(Nc3ccc4c(cnn4Cc4cccc(F)c4)c3)c12` [AC-480], the Kd (in assay [1]; in assay [2]; in assay [3]; in assay [4]; in assay [5]; at Ephrin type-B receptor 3) was > 30 µM (inactive) throughout.

Consider `O[C@H]1CC[C@H](Nc2ncc3nc(Nc4c(F)cc(F)cc4F)n([C@H]4CCOC4)c3n2)CC1` [TANZISERTIB], for which the Kd (in assay [1]; in assay [2]; in assay [3]; in assay [4]; in assay [5]; on Ephrin type-B receptor 3) was > 30 µM (inactive) each time.
